Assay results: PubChem BioAssay (NCI)
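Dose response: 5 concentrations. Exposure: 48 h. Format: 96-well plates. Endpoint: linear interpolation; highest concentration if not reached. TGI is the concentration that stops growth completely.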

Key:
Assay in all cases: NCI-60 cell line screen, 48 h
NCI-H23 lung = test system: NCI-H23 lung
MDA-MB-231 breast = test system: MDA-MB-231 breast
MOLT-4 leukemia = test system: MOLT-4 leukemia
HOP-92 NSCLC = test system: HOP-92 NSCLC
HCT-116 colon = test system: HCT-116 colon
A549 NSCLC = test system: A549 NSCLC
MALME-3M melanoma = test system: MALME-3M melanoma
NCI-H522 lung = test system: NCI-H522 lung
UACC-257 melanoma = test system: UACC-257 melanoma
MDA-MB-435 = test system: MDA-MB-435
SF-295 CNS = test system: SF-295 CNS
DU-145 prostate = test system: DU-145 prostate
HCT-15 colon = test system: HCT-15 colon
RXF 393 renal = test system: RXF 393 renal
HL-60(TB) leukemia = test system: HL-60(TB) leukemia
IGROV1 ovarian = test system: IGROV1 ovarian
SW-620 colon = test system: SW-620 colon
NCI-H226 lung = test system: NCI-H226 lung
SF-268 CNS = test system: SF-268 CNS
UACC-62 melanoma = test system: UACC-62 melanoma
BT-549 breast = test system: BT-549 breast
NCI/ADR-RES ovarian = test system: NCI/ADR-RES ovarian
SK-MEL-5 melanoma = test system: SK-MEL-5 melanoma
786-0 renal = test system: 786-0 renal
COLO 205 colon = test system: COLO 205 colon
OVCAR-5 ovarian = test system: OVCAR-5 ovarian
U251 CNS = test system: U251 CNS
HT29 colon = test system: HT29 colon
RPMI-8226 leukemia = test system: RPMI-8226 leukemia
EKVX NSCLC = test system: EKVX NSCLC
SF-539 CNS = test system: SF-539 CNS
SK-OV-3 ovarian = test system: SK-OV-3 ovarian
PC-3 prostate = test system: PC-3 prostate
UO-31 renal = test system: UO-31 renal
SNB-75 CNS = test system: SNB-75 CNS
KM12 colon = test system: KM12 colon
SN12C renal = test system: SN12C renal
ACHN renal = test system: ACHN renal
CAKI-1 renal = test system: CAKI-1 renal
M14 melanoma = test system: M14 melanoma
K-562 leukemia = test system: K-562 leukemia
OVCAR-8 ovarian = test system: OVCAR-8 ovarian
MDA-N = test system: MDA-N
NCI-H460 lung = test system: NCI-H460 lung
OVCAR-4 ovarian = test system: OVCAR-4 ovarian
SNB-19 CNS = test system: SNB-19 CNS
OVCAR-3 ovarian = test system: OVCAR-3 ovarian
TK-10 renal = test system: TK-10 renal
SK-MEL-2 melanoma = test system: SK-MEL-2 melanoma
HOP-62 NSCLC = test system: HOP-62 NSCLC
HCC-2998 colon = test system: HCC-2998 colon
MCF7 breast = test system: MCF7 breast
SK-MEL-28 melanoma = test system: SK-MEL-28 melanoma
CCRF-CEM leukemia = test system: CCRF-CEM leukemia
SR leukemia = test system: SR leukemia
T-47D breast = test system: T-47D breast
LOX IMVI melanoma = test system: LOX IMVI melanoma
A498 renal = test system: A498 renal
HS 578T breast = test system: HS 578T breast

Measured: TGI

[N-]=[N+]=CC(=O)COC(=O)c1ccccc1
not listed: HS 578T breast
> 100 µM: all other assays above

CC(=O)Nc1ccc(/C=C2/NC(=S)N(/C=C3\C(=O)Oc4ccccc4C3=O)C2=O)cc1
63.1 µM: SNB-75 CNS
not listed: BT-549 breast
> 100 µM: all other assays above
